From US10485814B2, “Nicotinamide riboside analogs and pharmaceutical compositions and uses thereof” (GlaxoSmithKline Intellectual Property (No. 2) Limited, priority 2014, dated 2019) come the findings set out here.

Entries after “also recorded” stand apart in the source; their conditions may differ.

Series [1] has as its system Human dermal fibroblasts. The series is described as follows: UVA-induced gene expression in dermal fibroblasts (QPCR). The series is classed as cell-based. The note with it: NRH 200 μM for 5 days, UVA 5 or 7.5 J/cm^2. On the procedure: Human dermal fibroblasts were grown in regular culture media as described in example 1 and seeded in 12-well plates at 2×10^5 cells per well for overnight. Before UVA exposure, culture media were removed and PBS (500 μl) was added to each well. Cells were treated with NRH at 200 μM in culture media for 5 days, and only exposed to UVA at 5 J/cm^2 or 7.5 J/cm^2 every other day on day 0 and day 3. The Newport DS-101103 UV Solar Simulator with UV-A-F filter (Sol-UV-A-F) (Newport Corporate) was used as the UVA emitter. Measurement of the irradiation was taken using an ILT-1400-A radiometer/photometer with a UVA probe (SSL001A, international light technologies, Inc.). After UVA exposure, PBS was removed from each well and media with NRH were added to cells. Cells were harvested for RNA isolation after 5 days treatment.

A short description of series [2]: Storage in a 93% RH salt chamber. It is filed as physicochemical. The note with it: approximately 22° C., approximately 2¼ hours. The method, then: XRD indicated the sample was amorphous (FIG. 16). A sample of NRH was stored in a 93% RH (relative humidity) salt chamber (at approximately 22° C.) for approximately 2¼ hours. The sample had deliquesced and there was no evidence of crystallization based on XRD analysis.

Series [3] relates to Human primary dermal fibroblasts (HDFa). The series can be described thus: Intracellular NAD measurement in human primary dermal fibroblasts. It is filed as cell-based. Conditions: different concentrations, 3 hrs, absorbance at 405 nm. The method, then:
Human primary dermal fibroblasts derived from adult human skins (HDFa, Life technologies, Grand Island, N.Y., Passage 2-4) were grown in Medium 106 (Life Technologies) supplemented with Low Serum Growth Supplement (LSGS) (Life Technologies) and seeded in 12-well plates with density at 2×10^5 cells per well and 2 ml of culture medium in each well.
Stock solution of dihydronicotinamide riboside (NRH, GSK3008320A, GSK, RTP, NC) was prepared in ethanol at 100 mM (25.6 mg/ml) and stored at −20° C. Cells were treated with different concentrations of NRH for 3 hrs, washed twice with PBS containing 5 mM EDTA, and then subject to Nicotinamide adenine dinucleotide (NAD) measurement. In brief, acetonitrile (ACN) lysis buffer (Ammonium Acetate (50 mM) and 90% acetonitrile) was added to each well (200 μl/well) to lyse the cells at RT for 5-10 mins by gently rotating on a culture plate shaker at a low speed. […] At the end of incubation, the supernatant (200 μl) of the reaction solution from each well was transferred to each well of a 96-well plate and absorbance was read twice in the 96-well plate at 405 nm using a plate reader (Spectra Maxplus, Molecular Devices, Sunnyvale, Calif.). […]

The subject of series [4] is HaCaT cells. The series can be described thus: H2O2-induced reactive oxygen species (ROS) in HaCaT cells (CellROX deep red). It is filed as cell-based, human. Conditions: 3 hr pre-incubation then 250 μM H2O2, Hydroxyterosol 0.005%, niacinamide 4.5 mM, NRH several concentrations. The method, then:
HaCaT cells were grown as described in example 23 and were seeded in 96-well plates (Nunc™ black with optical bottom, Thermo Fisher Scientific, Inc., Waltham, Mass.) with a density at 2×10^4 cells per well and 100 μl medium in each well, and grown overnight before treatments. Stock solutions of NRH and other test compounds were prepared and diluted to 2× of final treatment concentrations in DMEM medium in 96-well storage plate as indicated in the FIG. 11. HaCaT Cells were treated in triplicates by adding 100 μl of diluted solutions of test compounds (2×) to each well containing 100 μl medium already. Cells were incubated in the presence of test compounds for 3 hrs. At the end of 3 hr incubation, cells were washed once with 200 μl DPBS with Ca^++ and Mg^++ (Life Technologies) and then fed with 100 μl DMEM medium each well containing H2O2 at 250 μM (as a ROS (reactive oxygen species) inducer, Sigma). After 30 min incubation, cells were washed once with 200 μl DPBS with Ca^++ and Mg^++ and CellROX deep red reagent (2.5 mM stock solution, Life Technologies) was added to the medium to a final concentration of 5 μM. After 1 hr incubation at 37° C., 5% CO2, Cells were washed for 3 times with DPBS, fluorescence signal was read at Ex. 640 nm and Em. 665 nm in Biotek Synergy H4 microplate reader (BioTek, Winooski, Vt.). Untreated cells were served as controls (normalized to 1). All the treated samples were normalized to the untreated control.

Series [5] in a line: Gravimetric Vapor Sorption (GVS). The series is classed as physicochemical. An outline of the steps: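 Samples dried under nitrogen 5 h at 25 °C, then sorption ramp from 5% to 95% or 90% RH and desorption back to 5% or 10% RH, all at 25 °C. Each RH step held 4 h; mass change by microbalance.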

Turning to `NC(=O)C1=CN([C@@H]2O[C@H](CO)[C@@H](O)[C@H]2O)C=CC1` [NRH, dihydronicotinamide riboside], in series [1], the “COX-2 expression compared to UVA alone” value was “reduced; also recorded: decreases”, the “NQO-1 expression compared to UVA alone” value is listed as “increases” and the “NRF-2 expression compared to UVA alone” value is listed as “increases”. Moreover, the “behaviour on storage at high humidity” value in series [2] is recorded as “deliquesced”. For the same compound, in series [3], the NAD level result is listed as “dose-dependently increases NAD; also recorded: dose-dependently increases NAD^+”. In addition, in series [4], the “H2O2-induced ROS” value is “dose-dependent inhibitory activities”. The GVS weight gain entry in series [5] (90% RH, 25° C., after drying) was “greater than 60 % w/w”. Moreover, the “hygroscopicity by GVS” value in series [5] (GVS isotherm 25° C.) was “hygroscopic”.
